In patent US20180022780A1, “STABILIZATION ADRENOMEDULLIN DERIVATIVES AND USE THEREOF” (priority 2014, published 2018):
pEC50: −log10 of the molar value. Bridge positions count the residues as written; N and C are the ends. Square brackets hold non-standard residues; d marks the D form. Peptide text beside a SMILES is read from it. * marks the point of attachment. Palmitoyl = CCCCCCCCCCCCCCCC(=O)*; NMeI = CC[C@H](C)[C@H](NC)C(=O)O; Orn = NCCC[C@H](N)C(=O)O

What was measured:
[1] = target: T1, human adrenomedullin-receptor (Homo sapiens, UniProt O60895+Q16602); experiment: Tests on a recombinant adrenomedullin-receptor reporter cell (CHO, aequorin luminescence); assay type: cell-based; details: Table 1, CHO cell line carrying the human adrenomedullin-receptor
T1 construct: expressed in transfected cells; host or cells: CHO (Chinese hamster ovary) recombinant reporter cell line with aequorin
T1 sequence (Q16602 23-461): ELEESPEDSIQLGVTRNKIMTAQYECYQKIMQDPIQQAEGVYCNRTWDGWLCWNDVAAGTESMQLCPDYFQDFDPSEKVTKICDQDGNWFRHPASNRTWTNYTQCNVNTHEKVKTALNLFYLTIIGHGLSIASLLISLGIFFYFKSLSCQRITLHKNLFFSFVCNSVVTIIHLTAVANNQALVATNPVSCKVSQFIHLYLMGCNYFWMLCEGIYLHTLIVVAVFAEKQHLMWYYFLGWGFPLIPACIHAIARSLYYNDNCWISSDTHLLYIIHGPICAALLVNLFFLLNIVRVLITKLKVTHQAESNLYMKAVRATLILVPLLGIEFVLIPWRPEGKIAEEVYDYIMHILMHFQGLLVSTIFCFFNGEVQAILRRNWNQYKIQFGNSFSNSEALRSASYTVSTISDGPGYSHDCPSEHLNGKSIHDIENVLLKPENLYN
T1 sequence (O60895 43-175): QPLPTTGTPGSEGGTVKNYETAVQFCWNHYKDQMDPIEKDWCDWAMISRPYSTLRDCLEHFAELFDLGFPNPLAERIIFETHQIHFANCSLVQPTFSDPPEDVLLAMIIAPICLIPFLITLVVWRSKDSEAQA
Protocol: Activation of the receptor by ligands was measured by aequorin luminescence. Construction of the cell line and measurement procedure has been described in detail [Wunder F., Rebmann A., Geerts A, and Kalthof B., Mol Pharmacol, 73, 1235-1243 (2008)]. In brief: Cells were seeded on opaque 384-well microtiter plates at a density of 4000 cells/well and were grown for 24 h. After removal of culture medium, cells were loaded for 3 h with 0.6 μg/ml coelenterazine in Ca^2+-free Tyrode solution (130 mM sodium chloride, 5 mM potassium chloride, 20 mM HEPES (4-(2-hydroxyethyl)-1-piperazineethanesulfonic acid), 1 mM magnesium chloride, and 4.8 mM sodium hydrogen carbonate, pH 7.4) supplemented with 0.2 mM 3-Isobutyl-1-methylxanthine (IBMX) in a cell culture incubator. Examples were added for 6 min in calcium^2+-free Tyrode solution containing 0.1% bovine serum albumin. Immediately before adding calcium^2+ to a final concentration of 3 mM measurement of the aequorin luminescence was started by use of a suitable luminometer. Luminescence was measured for 60 s. In a typical experiment compounds were tested in a concentration range of 1×10^−13 to 3×10^−6 M.

[2] = target: T2, CLR fused to EYFP and RAMP2 fused to ECFP (Homo sapiens, UniProt O60895+Q16602); experiment: cAMP assay (CRE luciferase reporter, HEK-293 cells transiently co-transfected with CLR and RAMP2); assay type: cell-based; details: Table 2, cAMP assay; HEK-293, CLR/RAMP2, CRE luciferase, 3 h stimulation, normalized to [G^14]ADM(14-52)
T2 construct: EYFP; ECFP; expressed in transfected cells; host or cells: HEK-293 cells, transient co-transfection
T2 sequence (Q16602 23-461): as the sequence (Q16602 23-461) above
T2 sequence (O60895 43-175): as the sequence (O60895 43-175) above
Method in brief: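 HEK-293 cells transiently co-transfected with CLR-EYFP, RAMP2-ECFP and a CRE-luc2P luciferase reporter were stimulated with ligands (eight concentrations, triplicate) for 3 h at 37 °C. Luminescence was corrected to 5 µM forskolin, normalized to [G^14]ADM(14-52) standard, and fitted by non-linear regression to dose-response curves.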

pEC50 [1] | pEC50 [2] | SMILES
< 6.00 | 6.81 | CCCCCCCCCCCCCCCC(=O)NCCCC[C@H](N)C(=O)NCC(=O)N[C@H]1CCCCNC(=O)CC[C@@H](C(=O)N[C@H](C(=O)N[C@H](C(=O)N[C@@H](CCC(N)=O)C(=O)N[C@@H](CCCCN)C(=O)N[C@@H](CC(C)C)C(=O)N[C@@H](C)C(=O)N[C@@H](Cc2c[nH]cn2)C(=O)N[C@@H](CCC(N)=O)C(=O)N[C@H](C(=O)N[C@@H](Cc2ccc(O)cc2)C(=O)N[C@@H](CCC(N)=O)C(=O)N[C@@H](Cc2ccccc2)C(=O)N[C@H](C(=O)N[C@@H](CC(=O)O)C(=O)N[C@@H](CCCCN)C(=O)N[C@@H](CC(=O)O)C(=O)N[C@@H](CCCCN)C(=O)N[C@@H](CC(=O)O)C(=O)N[C@@H](CC(N)=O)C(=O)N[C@H](C(=O)N[C@@H](C)C(=O)N2CCC[C@H]2C(=O)N[C@@H](CCCNC(=N)N)C(=O)N[C@@H](CO)C(=O)N[C@@H](CCCCN)C(=O)N[C@H](C(=O)N[C@@H](CO)C(=O)N2CCC[C@H]2C(=O)N[C@@H](CCC(N)=O)C(=O)NCC(=O)N[C@@H](Cc2ccc(O)cc2)C(N)=O)[C@@H](C)CC)C(C)C)[C@@H](C)O)[C@@H](C)CC)C(C)C)[C@@H](C)O)NC(=O)[C@H]([C@@H](C)O)NC(=O)CNC(=O)[C@H](Cc2ccccc2)NC(=O)[C@H](CCCNC(=N)N)NC1=O [Example 13, ((2S,5S,11S,14S,23S)-23-(2-((S)-2-amino-6-palmitamidohexanamido)acetamido)-5-benzyl-2-(3-guanidinopropyl)-11-((R)-1-hydroxyethyl)-3,6,9,12,17,24-hexaoxo-1,4,7,10,13,18-hexaazacyclotetracosane-14-carbonyl)-L-threonyl-ADM(22-52)] (H-K(Palmitoyl)GKRFGTETVQKLAHQIYQFTDKDKDNVAPRSKISPQGY-NH2; lactam 3-8)
7.49 | 6.82 | CCCCCCCCCCCCCCCC(=O)NCCCC[C@H](N)C(=O)NCC(=O)N[C@H]1CCC(=O)NCCCC[C@@H](C(=O)N[C@H](C(=O)N[C@H](C(=O)N[C@@H](CCC(N)=O)C(=O)N[C@@H](CCCCN)C(=O)N[C@@H](CC(C)C)C(=O)N[C@@H](C)C(=O)N[C@@H](Cc2c[nH]cn2)C(=O)N[C@@H](CCC(N)=O)C(=O)N[C@H](C(=O)N[C@@H](Cc2ccc(O)cc2)C(=O)N[C@@H](CCC(N)=O)C(=O)N[C@@H](Cc2ccccc2)C(=O)N[C@H](C(=O)N[C@@H](CC(=O)O)C(=O)N[C@@H](CCCCN)C(=O)N[C@@H](CC(=O)O)C(=O)N[C@@H](CCCCN)C(=O)N[C@@H](CC(=O)O)C(=O)N[C@@H](CC(N)=O)C(=O)N[C@H](C(=O)N[C@@H](C)C(=O)N2CCC[C@H]2C(=O)N[C@@H](CCCNC(=N)N)C(=O)N[C@@H](CO)C(=O)N[C@@H](CCCCN)C(=O)N(C)[C@H](C(=O)N[C@@H](CO)C(=O)N2CCC[C@H]2C(=O)N[C@@H](CCC(N)=O)C(=O)NCC(=O)N[C@@H](Cc2ccc(O)cc2)C(N)=O)[C@@H](C)CC)C(C)C)[C@@H](C)O)[C@@H](C)CC)C(C)C)[C@@H](C)O)NC(=O)[C@H]([C@@H](C)O)NC(=O)CNC(=O)[C@H](Cc2ccccc2)NC(=O)[C@H](CCCNC(=N)N)NC1=O [Example 14, ((2S,5S,11S,14S,23S)-23-(2-((S)-2-amino-6-palmitamidohexanamido)acetamido)-5-benzyl-2-(3-guanidinopropyl)-11-((R)-1-hydroxyethyl)-3,6,9,12,20,24-hexaoxo-1,4,7,10,13,19-hexaazacyclotetracosane-14-carbonyl)-L-threonyl-[N-Me-I^47]ADM(22-52)] (H-K(Palmitoyl)GERFGTKTVQKLAHQIYQFTDKDKDNVAPRSK[NMeI]SPQGY-NH2; lactam 3-8)
< 6.00 | < 6.00 | CC[C@H](C)[C@H](NC(=O)[C@H](CCC(N)=O)NC(=O)[C@H](Cc1c[nH]cn1)NC(=O)[C@H](C)NC(=O)[C@H](CC(C)C)NC(=O)[C@H](CCCCN)NC(=O)[C@H](CCC(N)=O)NC(=O)[C@@H](NC(=O)[C@@H](NC(=O)[C@@H]1CCCC[C@H](NC(=O)CNC(=O)CN)C(=O)N[C@@H](CCCNC(=N)N)C(=O)N[C@@H](Cc2ccccc2)C(=O)NCC(=O)N[C@@H]([C@@H](C)O)C(=O)N1)[C@@H](C)O)C(C)C)C(=O)N[C@@H](Cc1ccc(O)cc1)C(=O)N[C@@H](CCC(N)=O)C(=O)N[C@@H](Cc1ccccc1)C(=O)N[C@H](C(=O)N[C@@H](CC(=O)O)C(=O)N[C@@H](CCCCN)C(=O)N[C@@H](CC(=O)O)C(=O)N[C@@H](CCCCN)C(=O)N[C@@H](CC(=O)O)C(=O)N[C@@H](CC(N)=O)C(=O)N[C@H](C(=O)N[C@@H](C)C(=O)N1CCC[C@H]1C(=O)N[C@@H](CCCNC(=N)N)C(=O)N[C@@H](CO)C(=O)N[C@@H](CCCCN)C(=O)N[C@H](C(=O)N[C@@H](CO)C(=O)N1CCC[C@H]1C(=O)N[C@@H](CCC(N)=O)C(=O)NCC(=O)N[C@@H](Cc1ccc(O)cc1)C(N)=O)[C@@H](C)CC)C(C)C)[C@@H](C)O [Example 17, ((2S,5S,11S,14S,19S)-19-(2-(2-aminoacetamido)acetamido)-5-benzyl-2-(3-guanidinopropyl)-11-((R)-1-hydroxyethyl)-3,6,9,12,20-pentaoxo-1,4,7,10,13-pentaazacycloicosane-14-carbonyl)-L threonyl-ADM(22-52)]
< 6.00 | 7.68 | CC[C@H](C)[C@H](NC(=O)[C@H](CCC(N)=O)NC(=O)[C@H](Cc1c[nH]cn1)NC(=O)[C@H](C)NC(=O)[C@H](CC(C)C)NC(=O)[C@H](CCCCN)NC(=O)[C@H](CCC(N)=O)NC(=O)[C@@H](NC(=O)[C@@H](NC(=O)[C@@H]1CCCNC(=O)CC[C@H](NC(=O)CNC(=O)CN)C(=O)N[C@@H](CCCNC(=N)N)C(=O)N[C@@H](Cc2ccccc2)C(=O)NCC(=O)N[C@@H]([C@@H](C)O)C(=O)N1)[C@@H](C)O)C(C)C)C(=O)N[C@@H](Cc1ccc(O)cc1)C(=O)N[C@@H](CCC(N)=O)C(=O)N[C@@H](Cc1ccccc1)C(=O)N[C@H](C(=O)N[C@@H](CC(=O)O)C(=O)N[C@@H](CCCCN)C(=O)N[C@@H](CC(=O)O)C(=O)N[C@@H](CCCCN)C(=O)N[C@@H](CC(=O)O)C(=O)N[C@@H](CC(N)=O)C(=O)N[C@H](C(=O)N[C@@H](C)C(=O)N1CCC[C@H]1C(=O)N[C@@H](CCCNC(=N)N)C(=O)N[C@@H](CO)C(=O)N[C@@H](CCCCN)C(=O)N[C@H](C(=O)N[C@@H](CO)C(=O)N1CCC[C@H]1C(=O)N[C@@H](CCC(N)=O)C(=O)NCC(=O)N[C@@H](Cc1ccc(O)cc1)C(N)=O)[C@@H](C)CC)C(C)C)[C@@H](C)O [Example 19, ((2S,5S,11S,14S,22S)-22-(2-(2-aminoacetamido)acetamido)-5-benzyl-2-(3-guanidinopropyl)-11-((R)-1-hydroxyethyl)-3,6,9,12,19,23-hexaoxo-1,4,7,10,13,18-hexaazacyclotricosane-14-carbonyl)-L-threonyl-ADM(22-52)] (H-GGERFGT[Orn]TVQKLAHQIYQFTDKDKDNVAPRSKISPQGY-NH2; lactam 3-8)
